Reference: patent publication US11413261B2, “Pharmaceutical composition for treating cancer comprising lactate metal salt” (METIMEDI PHARMACEUTICALS CO., LTD, priority 2014, dated 2022)

Assays:
cancer cell = test: Dissociation of metal lactate salts to lactate in a cancer cell; format: cell-based
[1] = system: HIF-1α (hypoxia inducible factor 1α); test: HIF-1α protein expression (Western blot); format: cell-based, human; settings: HCT-116 and HT-29, hypoxia condition
Procedure: Human colorectal cancer cell lines (HCT-116 and HT-29) were cultured for 24 hours, under normoxia or hypoxia condition either treated or not treated with 2.5 mM calcium lactate. Then, a Western blot using an anti-HIF-1α antibody was conducted to each of the cultured cancer cell lines (upper part of FIG. 15).
Then, the human colorectal cancer cell lines (HCT-116 and HT-29) were treated with various concentrations (0.5 mM, 1.5 mM and 2.5 mM) of the calcium lactate under hypoxia condition and cultured and change in expression levels of HIF-1α in a nucleus of a cancer cell was measured (lower part of FIG. 15).

[2] = system: human vascular endothelial cell (HUVEC); test: Tube formation of HUVEC in culture supernatants of treated cancer cell lines; format: cell-based
From the text: A human vascular endothelial cell (HUVEC) was inoculated into each of the obtained culture supernatant and cultured to analyze a conformational change of cells (FIG. 17). In this case, an HUVEC cultured using the culture medium of a cancer cell line cultured without treating with calcium lactate was used as a control group, and an HUVEC cultured with the treatment with Sulforaphane, which is a growth inhibitor of an HUVEC, was used as a comparison group.

[3] = system: LDH-B (lactate dehydrogenase B); test: LDH-B protein expression (immunofluorescence); format: cell-based, human; settings: HCT-116 and HT-29; 2.5 mM, 24 hours
Procedure: Human colorectal cancer cell lines (HCT-116 and HT-29) were treated with 2.5 mM calcium lactate and cultured for 24 hours. The cultured cancer cell lines were immobilized with 4% paraformaldehyde and treated with an anti-rabbit LDHB antibody for 15 hours. Then, the cancer cell lines were washed with PBS and treated with a secondary antibody conjugated with biotin and then reacted at room temperature for 2 hours. Then, the cancer cell lines were treated with streptavidine conjugated with FITC to perform fluorescence staining and then photographed with a fluorescence microscope (FIG. 11a-11c). In this case, cancer cell lines cultured under normoxia condition (N-control) or hypoxia condition (H-control) were used as control groups, and a nucleus of each cell was stained using DAPI. Further, the photos were analyzed using the Xenogen In Vivo Imaging System 100 series and Living imaging software (Xenogen).

[4] = system: human colorectal cancer cell line HCT-116; settings: 5 mM calcium lactate individually, 10 days
[5] = system: human colorectal cancer cell lines (HCT-116, HT-29, and DLD-1); test: Colony-forming ability of colorectal cancer cell lines in solid medium; format: cell-based; settings: HCT-116, HT-29, DLD-1; with increasing concentration (0.5, 1.5, 2.5 mM), 10 days
Procedure: Firstly, human colorectal cancer cell lines (HCT-116, HT-29, and DLD-1) were inoculated into solid mediums including various concentrations (0 mM, 0.5 mM, 1.5 mM, or 2.5 mM) of calcium lactate and cultured for 10 days. After the completion of the culture, the cells were immobilized and stained with hematoxylin. Then, the number of cancer cells formed into colonies was counted (FIG. 23).

[6] = system: colorectal cancer cell (HT-29 or HCT-116); test: Tumor volume in animal model treated with radiation and calcium lactate; format: in vivo, mice
Procedure: A colorectal cancer cell (HT-29 or HCT-116) was subcutaneously implanted into the flank of mice. The mice were bred until the colorectal cancer cell grew to about 5 mm. Then, four groups were set up; a control group untreated with calcium lactate for 30 days, an experimental group 11 (intra tumor, I.T) injected with 2.5 mM calcium lactate, an experimental group 12 (IR) irradiated with radiation of 2 Gy five times using an X-RAD 320 X-ray irradiator (300 kVp) equipped with a 2.0 mm aluminum filter, and an experimental group 13 (CaLa+IR) irradiated with radiation of 2 Gy five times and injected with 2.5 mM calcium lactate at the same time (FIG. 36).
The volumes of colorectal cancer tissues extracted from the mice of the control group or each of the experimental groups set up in Example 11-1 were measured over time and compared with each other (FIGS. 37a and 37b).

HIF-1α = HIF-1α expression in tumor tissues of animal model; format: in vivo, Balb/c mice; settings: HT-29 tumor tissue
Procedure: A colorectal cancer cell (HT-29) cultured in an RPMI1640 medium and then diluted with PBS was subcutaneously implanted into the flank of Balb/c mice. The mice were bred until the colorectal cancer cell grew to about 5 mm. Then, four groups were set up; a control group untreated with calcium lactate for 30 days, an experimental group 1 (peroral, P.O.) administered with 2.5 mM calcium lactate by oral administration, an experimental group 2 (intra tumor, I.T) injected with 2.5 mM calcium lactate around tumor, and an experimental group 3 (subcutaneous, S.C) subcutaneously injected with 25 mM calcium lactate (FIG. 27).
Colorectal cancer tissues were extracted from the mice of the control group or the experimental group 1 set up in Example 10-1, and expression levels of HIF-1α and VEGF involved in metastasis, invasion, and angiogenesis of tumor expressed therein were compared (FIG. 29). In this case, GAPDH was used as internal control groups.
Colorectal cancer tissues were extracted from the mice of the control group or the experimental group 2 set up in Example 10-1, and expression levels of HIF-1α and VEGF involved in metastasis, invasion, and angiogenesis of tumor therein were compared (FIG. 31). In this case, GAPDH was used as internal control groups.

[7] = system: human colorectal cancer cell line (HT-29); test: Colony-forming ability, anticancer drug in combination with calcium lactate (6-well plates); format: cell-based; settings: 2.5 mM calcium lactate alone, vs control
Procedure: Human colorectal cancer cell line (HT-29) with the cell number of 1×10^3 cells were seeded into an RPMI1640 medium in each of 6-well plates. […]. Then, the colony-forming abilities of the cells were compared. In this case, a human colorectal cancer cell line (HT-29) untreated with any drug was used as a control group (FIGS. 46a and 46b).
Human colorectal cancer cell line (HT-29) with the cell number of 1×10^3 cells were seeded into an RPMI1640 medium in each of 6-well plates. […]. Then, the colony-forming abilities of the cells were compared. In this case, a human colorectal cancer cell line (HT-29) untreated with any drug was used as a control group (FIGS. 48a and 48b).
Human colorectal cancer cell line (HT-29) with the cell number of 1×10^3 cells were seeded into an RPMI1640 medium in each of 6-well plates. […]. Then, the colony-forming abilities of the cells were compared. In this case, a human colorectal cancer cell line (HT-29) untreated with any drug was used as a control group (FIG. 55).

CC(O)C(=O)[O-].CC(O)C(=O)[O-].[Ca+2] (stereo not shown) [calcium lactate]
dissociation to lactate in a cancer cell (cancer cell): can be dissociated to lactate | protein expression levels of HIF-1α ([1]; 2.5 mM, 24 hours): not expressed | expression levels of HIF-1α in a nucleus of a cancer cell ([1]; 0.5, 1.5, 2.5 mM): suppresses the expression levels of HIF-1α concentration dependently | tube-forming ability of HUVEC ([2]; culture supernatant of cancer cell line treated with 2.5 mM): reduced tube-forming ability similar to the comparison group treated with Sulforaphane | tube-forming ability of HUVEC ([2]; culture supernatants of cancer cell lines treated with 0.5, 1, 1.5, 2.5 mM for 24 hours, vs control): reduced tube-forming ability | protein expression levels of LDH-B [3]: sharply increased | survival rate [4]: about 60% | number of colonies [5]: decreased | growth of tumor ([6]; 2.5 mM calcium lactate I.T. individually, vs control): inhibited | growth of tumor ([6]; 2.5 mM calcium lactate in combination with radiation of 2 Gy five times): inhibited to the lowest level | expression of HIF-1α (HIF-1α; experimental group 1, 2.5 mM oral administration): inhibited | expression of HIF-1α (HIF-1α; experimental group 2, 2.5 mM injected around tumor): inhibited | colony-forming ability [7]: suppressed
